Among the data in the METLIN SMRT retention time set (Domingo-Almenara et al. 2019) are RP-LC retention time values, retold here.

This series is described as follows: gradient 5% acetonitrile 3 min, to 50% in 2 min, to 85% in 15 min, held 3 min, 100 µL/min. As to conditions: column: Zorbax Extend-C18 2.1 x 50 mm; eluents: water / acetonitrile, 0.1% formic acid. The method in brief:
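The system's dead and dwell volumes were 40 μL and 900 μL, with a Zorbax Extend-C18 column (2.1 × 50 mm, 1.8 μm) run at 100 μL/min in water and acetonitrile containing 0.1% formic acid each. Pure standards were analyzed in mixtures of ~100 molecules by HPLC–quadrupole time-of-flight mass spectrometry in positive and negative ionization mode. Retention time was assigned from computationally picked, manually inspected adduct peaks.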
Consider `CNC(=O)C1CN(C(=O)c2cccc(C(F)(F)F)c2)CC12CCCC2` (stereo not drawn), for which the RP-LC retention time was determined as 749 s.

As to `O=C(CN1C(=O)CCC1=O)Nc1nnc(-c2ccc(C(F)(F)F)cc2)o1`, the RP-LC retention time was found to be 674 s.

In turn, `Cc1cccc(C)c1-n1ccn(Cc2nc(-c3ccc(F)c(Cl)c3)no2)c(=O)c1=O` had an RP-LC retention time of 976 s.

Regarding `Cc1ccc(CN2CC[C@]3(CO)CN(Cc4ccccc4)C[C@@H]3C2)cc1C`, the RP-LC retention time was 570 s.

`CCOc1ccc(-c2nc(-c3ccc4c(c3)N(CC)C(=O)CO4)no2)cc1OCC` showed an RP-LC retention time of 1200 s.

`COc1cccc(S(=O)(=O)N2CCC(N3CCN(Cc4ccc(C)cc4)C(=O)C3=O)CC2)c1`: the RP-LC retention time was determined as 861 s.

For `Cc1cc(C)nc(SCC(=O)Nc2nc(-c3ccccc3)cs2)n1`, the RP-LC retention time is 1020 s.

For the compound `CCSc1nnc(-c2nn(C)c3c2CN(C(=O)c2ccc(F)cc2)CC3)n1C`, the RP-LC retention time stood at 750 s.

For the compound `O=C(NCC(O)(c1ccccc1)C(F)(F)F)NC1CCCCC1` (stereo not drawn), the RP-LC retention time was determined as 879 s.

`COc1ccccc1CNC(=O)c1cn(-c2cc(N3CCOCC3)ncn2)cn1`: the RP-LC retention time came to 757 s.

As for `CCC(=O)N1CCN(Cc2nc3cc(NC(=O)C(C)C)ccc3n2C)CC1`, the RP-LC retention time is 584 s.

In turn, `Cn1cnc(S(=O)(=O)N2CCC3(CC2)N(c2ccccc2)C(=O)CS3=O)c1` (stereo not drawn) displayed an RP-LC retention time of 593 s.

In turn, `CCOc1ccccc1N1CCN(S(=O)(=O)c2nn(CC)cc2C(=O)NCC(=O)OC)CC1` came in with an RP-LC retention time of 896 s.

With `Cc1cc(C)c2c(N3CCCCC3)nc(C(=O)N3CCN(C(C)C)CC3)nc2n1`, the RP-LC retention time was 556 s.

`CC(C)NC(=O)N1CCC(c2nc3cccnc3n2C)C1` (stereo not drawn) registered an RP-LC retention time of 572 s.

For `COc1ccc(CNC(=O)c2nnc(-c3ccc(S(=O)(=O)N(C)C)cc3)o2)cc1OC`, the RP-LC retention time came to 865 s.

Consider `COc1ccc(CCNC(=O)C2CCN(S(=O)(=O)N(CC(C)C)CC(C)C)CC2)cc1OC`, for which the RP-LC retention time was determined as 992 s.

In the case of `CCN1c2ccccc2C(=O)NC12CCN(C(=O)Nc1ccccc1C)CC2`, the RP-LC retention time is 731 s.

The compound `CCC(=O)N1c2ccc(S(=O)(=O)N3CCCCC3)cc2CC1C(=O)NC1CCCCC1` (stereo not drawn) gave an RP-LC retention time of 895 s.

Consider `Cc1cc(OCC(=O)Nc2ccccc2C(F)(F)F)nc(N2CCN(c3ccccc3)CC2)n1`, for which the RP-LC retention time is 971 s.

On to `O=C1CCc2cc(NC(=O)c3cccc(C(F)(F)F)c3)ccc2N1`, for which the RP-LC retention time was 717 s.

`O=C(C1CCC1)N1CCC(c2nc(C3CCOCC3)no2)C1` (stereo not drawn) displayed an RP-LC retention time of 671 s.

`COc1cc(F)ccc1-c1ccnc2nc(CCc3ccccc3)nn12` showed an RP-LC retention time of 951 s.

Compound `CCC(=O)Nc1ccc(CCc2nc3ccc(C(=O)NC(C)c4ccccc4)cc3[nH]2)cc1` (stereo not drawn) registered an RP-LC retention time of 658 s.

Consider `COc1ccc(CC(=O)N2CCC(c3nncn3C(C)C)CC2)cc1`, for which the RP-LC retention time came out at 622 s.

The compound `CCn1ccnc1N1CCN(CC(=O)Nc2cc(Cl)ccc2OC)CC1` gave an RP-LC retention time of 552 s.

The compound `Cc1cc(C)c2c(N3CCSCC3)nc(C(=O)NCc3ccccn3)nc2n1` displayed an RP-LC retention time of 567 s.

On to `CC(C)n1cnc(S(=O)(=O)N2CCC(C(=O)NCCc3ccccc3)CC2)c1`, for which the RP-LC retention time came out at 745 s.

Compound `CCOc1ccc(CC(=O)N2CCCC2c2cc(C)on2)cc1` (stereo not drawn) came in with an RP-LC retention time of 822 s.

`CCOc1ccc(-c2csc3c(=O)n(CC(C)C)cnc23)cc1OCC` returned an RP-LC retention time of 1100 s.

Compound `Cc1cc(C(=O)NCC2CCN(C(=O)Nc3ccc(F)cc3)CC2)c(C)o1` returned an RP-LC retention time of 750 s.

`O=C(NC1CCN(C(=O)c2cc(-c3cccs3)[nH]n2)CC1)c1ccccc1Cl` yielded an RP-LC retention time of 718 s.

`O=C1CCN(S(=O)(=O)c2ccccc2)CCCN(S(=O)(=O)Cc2ccccc2)CCN1` gave an RP-LC retention time of 779 s.
